From patent EP4810052A2, “HCRHR2 SELECTIVE POLYPEPTIDES” (Gubra A/S, priority 2023, dated 2026)
Like-named read-outs stand apart in the source and are kept apart here. Marks after values point to notes of the source that are not given here. Starred links: 1 amine or outer side, 2 acyl side, 3 side chain; linkers in the order of their positions; H or OH if unused. Non-standard residues stand in square brackets, D forms with d. Residues, ends and D or L forms follow the SMILES beside them. Groups on a side chain read outwards from the residue. *: point of attachment. C20 diacid = O=C(O)CCCCCCCCCCCCCCCCCCC(=O)*; γGlu = O=C(O)[C@H](CCC(=O)[*:2])N[*:1]; Nle = CCCC[C@H](N)C(=O)O; AEEA = NCCOCCOCC(=O)O; Aib = CC(C)(N)C(=O)O

How the values were obtained:
hCRHR2 = target: T1, hCRHR2 (Homo sapiens, UniProt Q13324); test: HTRF cAMP assay, determination of hCRHR2 potency (peptide libraries 5 conc., purified peptides 11 conc.); format: cell-based; conditions: for EC50: read-out: hCRHR2 EC50
T1 sequence (Q13324 1-411): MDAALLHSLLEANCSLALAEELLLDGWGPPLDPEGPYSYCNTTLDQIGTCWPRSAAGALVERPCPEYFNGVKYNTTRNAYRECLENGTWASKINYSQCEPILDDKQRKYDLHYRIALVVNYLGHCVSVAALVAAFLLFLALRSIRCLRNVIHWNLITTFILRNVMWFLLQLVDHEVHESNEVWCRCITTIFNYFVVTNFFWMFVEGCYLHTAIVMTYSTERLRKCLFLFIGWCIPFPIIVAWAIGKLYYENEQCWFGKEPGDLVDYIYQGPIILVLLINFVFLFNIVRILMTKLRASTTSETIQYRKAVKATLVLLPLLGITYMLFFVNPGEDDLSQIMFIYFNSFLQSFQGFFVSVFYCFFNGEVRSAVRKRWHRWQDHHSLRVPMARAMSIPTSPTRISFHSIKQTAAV
Method in brief: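 EC50 derived by variable-slope sigmoid regression of FRET-based cAMP data; cellular cAMP displaced d2-labelled tracer from cryptate anti-cAMP antibody. Stable human CRHR2 CHO-K1 suspension cells, revived from frozen stocks just before the run.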

hCRHR1 = target: T2, hCRHR1 (Homo sapiens, UniProt P34998); test: HTRF cAMP assay, determination of hCRHR1 potency (peptide libraries 5 conc., purified peptides 11 conc.); format: cell-based
T2 sequence (P34998 24-415): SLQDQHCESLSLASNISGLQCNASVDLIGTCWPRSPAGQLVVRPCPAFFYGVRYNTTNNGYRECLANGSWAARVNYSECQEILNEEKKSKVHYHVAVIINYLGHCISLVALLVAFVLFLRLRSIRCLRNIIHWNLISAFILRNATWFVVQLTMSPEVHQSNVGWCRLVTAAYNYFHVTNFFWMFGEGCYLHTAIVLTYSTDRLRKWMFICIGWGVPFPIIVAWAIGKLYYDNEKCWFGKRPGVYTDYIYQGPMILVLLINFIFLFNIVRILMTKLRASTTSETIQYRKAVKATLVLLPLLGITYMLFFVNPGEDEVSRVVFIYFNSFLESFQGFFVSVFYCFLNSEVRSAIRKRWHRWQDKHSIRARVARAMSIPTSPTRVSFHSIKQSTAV
Method in brief: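 Cellular cAMP was read by time-resolved FRET between d2-labelled cAMP and cryptate anti-cAMP antibody. The cells were freshly thawed suspension CHO-K1 cells stably expressing human CRHR1.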

PK in rats = format: in vivo; design: T½ / MRT: unit not given here; conditions: for half-life: read-out: T½ (converted)
Protocol: Lean male Sprague Dawley rats (RJHan:SD) were obtained from JanVier (JanVier Labs, France) at 7 weeks of age. The animals were pair housed until randomization under a 12/12 h dark-light cycle, light off at 3 PM. Room temperature was controlled to 22°C ± 1°C, with 60 % ± 20% humidity.
Animals had ad libitum access to regular rodent chow (Altromin 1324, Brogaarden, Denmark) and tap water.
After 2 weeks of acclimatization, the animals were single housed and randomized into treatment groups (n = 3 per group) based on body weight on study day -3. On study day 1, animals were dosed 50 nmol/kg IV and SC in combination of two peptides. Plasma samples were collected for PK analysis at times 0.17, 1, 3, 6, 24, 30, 48, 72 and 96 hours post dosing. Plasma samples were analyzed using LC-MSMS and PK parameters were estimated by Non-Compartmental Analysis (NCA).

[1] = Effect on acute food intake in mice; format: in vivo; conditions: single subcutaneous dose
Protocol: Male NMRI mice were obtained from JanVier (JanVier Labs, France) at 5 weeks of age. The animals were group-housed 4 mice pr. cage under a 12/12 h dark-light cycle, light off at 1 PM. Room temperature was controlled to 22°C ± 1°C, with 60 % ± 20% humidity. Animals had ad libitum access to regular rodent chow (Altromin 1324, Brogaarden, Denmark) and tap water.
Animals were transferred 5-7 days before the start of the study to a real-time food intake monitoring system, HM-2 system (MBRose, Denmark) to allow acclimatization to experimental conditions. As the animals were uniquely identified with microchips, each individual animal was identified by its microchip upon entry and exit from the food channel. Randomization of the mice for each study group (n=7-8) was based on body weight measured the day before the start of the study. A vehicle-treated group was included in each experiment. Six hours before the start of the dark phase, animals were fasted. One hour before the dark phase, animals were dosed once subcutaneously with test peptide. Food intake was reported hourly for a period of 72 hours. The percentage of food intake reduction was normalized to average food intake from the vehicle group. Statistical significance was evaluated using One-way analysis of variance with Dunnett's multiple comparison test. P < 0.05 was considered statistically significant.
Selected compounds were tested according to the general procedure on acute food intake in mice to determine the effect of a single subcutaneous dose on food intake in mice over 3 days.

[2] = male, Sprague Dawley (RJHan:SD), in vivo, iv, Rat, 50 nmol/kg i.v.
[3] = male, Sprague Dawley (RJHan:SD), in vivo, sc, Rat, 50 nmol/kg s.c.

## CC[C@H](C)[C@H](N)C(=O)N[C@H](C(=O)N[C@@H](CC(C)C)C(=O)N[C@@H](CO)C(=O)N[C@@H](CC(C)C)C(=O)N[C@@H](CC(=O)O)C(=O)N[C@H](C(=O)N1CCC[C@H]1C(=O)N[C@H](C(=O)NCC(=O)N[C@@H](CC(C)C)C(=O)N[C@@H](CC(C)C)C(=O)N[C@@H](CCC(N)=O)C(=O)N[C@H](C(=O)N[C@@H](CC(C)C)C(=O)N[C@@H](CC(C)C)C(=O)N[C@@H](CCC(=O)O)C(=O)N[C@@H](CCC(N)=O)C(=O)N[C@@H](C)C(=O)N[C@@H](CCCNC(=N)N)C(=O)N[C@@H](C)C(=O)N[C@@H](CCCNC(=N)N)C(=O)N[C@@H](C)C(=O)N[C@@H](C)C(=O)N[C@@H](CCCNC(=N)N)C(=O)N[C@@H](CCC(=O)O)C(=O)N[C@@H](CCC(N)=O)C(=O)N[C@@H](C)C(=O)N[C@@H](CCCCNC(=O)COCCOCCNC(=O)COCCOCCNC(=O)CC[C@H](NC(=O)CC[C@H](NC(=O)CCCCCCCCCCCCCCCCCCC(=O)O)C(=O)O)C(=O)O)C(=O)NC(C)(C)C(=O)N[C@@H](CC(N)=O)C(=O)N[C@@H](C)C(=O)N[C@@H](CCC(=O)O)C(=O)N[C@H](C(=O)N[C@@H](CC(C)C)C(=O)N[C@@H](C)C(=O)N[C@@H](CCC(=O)O)C(=O)N[C@H](C(N)=O)C(C)C)[C@@H](C)CC)[C@@H](C)CC)[C@@H](C)CC)C(C)C)C(C)C [SEQ ID NO: 19] (H-IVLSLDVPIGLLQILLEQARARAAREQAK([AEEA-AEEA-γGlu-γGlu-C20 diacid])[Aib]NAEILAEV-NH2)
hCRHR2; hCRHR1-EC50/hCRHR2-EC50
  Selectivity ratio (hCRHR1/ hCRHR2): >3125
hCRHR2; purified peptides, CHO-K1 cells stably expressing hCRHR2, cAMP HTRF
  EC50: 1.6 nM
hCRHR1; purified peptides, CHO-K1 cells stably expressing hCRHR1, cAMP HTRF, read-out: hCRHR1 EC50
  EC50: > 5000 nM
PK in rats; Rat
  MRT: 7.4
  T½: 5.9
[1]; 30 nmol/kg
  % FI compared to vehicle, 24 h post-dosing: 56.47*** %
[1]; 100 nmol/kg
  % FI compared to vehicle, 24 h post-dosing: 29.68*** %
[1]; 300 nmol/kg
  % FI compared to vehicle, 24 h post-dosing: 21.66*** %
pH 7.5
  Solubility pH 7.5, target conc. =10 mg/mL (measured mg/mL): 9.6 mg/mL

## CCCC[C@H](NC(=O)[C@@H](NC(=O)[C@H](CCC(=O)O)NC(=O)[C@H](C)NC(=O)[C@H](CC(N)=O)NC(=O)C(C)(C)NC(=O)[C@H](CCCCNC(=O)COCCOCCNC(=O)COCCOCCNC(=O)CC[C@H](NC(=O)CC[C@H](NC(=O)CCCCCCCCCCCCCCCCCCC(=O)O)C(=O)O)C(=O)O)NC(=O)[C@H](C)NC(=O)[C@H](CCC(N)=O)NC(=O)[C@H](CCC(=O)O)NC(=O)[C@H](CCCNC(=N)N)NC(=O)[C@H](C)NC(=O)[C@H](C)NC(=O)[C@H](CCCNC(=N)N)NC(=O)[C@H](C)NC(=O)[C@H](CCCNC(=N)N)NC(=O)[C@H](C)NC(=O)[C@H](CCC(N)=O)NC(=O)[C@H](CO)NC(=O)[C@H](CC(C)C)NC(=O)[C@H](CC(C)C)NC(=O)[C@@H](NC(=O)[C@H](CCC(N)=O)NC(=O)[C@H](CC(C)C)NC(=O)[C@H](CC(C)C)NC(=O)CNC(=O)[C@@H](NC(=O)[C@@H]1CCCN1C(=O)[C@@H](NC(=O)[C@H](CC(=O)O)NC(=O)[C@H](CC(C)C)NC(=O)[C@H](CO)NC(=O)[C@H](CC(C)C)NC(=O)[C@@H](NC(=O)[C@@H]1CCCN1)C(C)C)C(C)C)[C@@H](C)CC)[C@@H](C)CC)[C@@H](C)CC)C(=O)N[C@@H](C)C(=O)N[C@@H](CCC(=O)O)C(=O)N[C@H](C(N)=O)C(C)C [SEQ ID NO: 238] (H-PVLSLDVPIGLLQILLSQARARAAREQAK([AEEA-AEEA-γGlu-γGlu-C20 diacid])[Aib]NAEI[Nle]AEV-NH2)
hCRHR2; Table 5
  Selectivity ratio (hCRHR1/ hCRHR2): >6329
hCRHR2; Table 5, purified peptides
  EC50: 0.79 nM
hCRHR1; Table 5, purified peptides, read-out: hCRHR1 EC50
  EC50: > 5000 nM
hCRHR1; stable cell system, Table 10, read-out: Stable EC50 (nM) hCRHR 1
  EC50: > 5000 nM
PK in rats; Rat
  MRT: 14.2
  T½: 10.2
PK in rats; [2]
  clearance: 0.117 mL/min/kg
  half-life: 612 min
PK in rats; [3]
  Cmax: 91 nM
  Tmax: 24 h
  half-life: 660 min
PK in rats; male, Sprague Dawley, rat, in vivo, sc
  bioavailability: 43%
[1]; 30 nmol/kg
  % FI compared to vehicle, 24 h post-dosing: 29.73*** %
[1]; 100 nmol/kg
  % FI compared to vehicle, 24 h post-dosing: 12.92*** %
[1]; 300 nmol/kg
  % FI compared to vehicle, 24 h post-dosing: 7.94*** %
pH 6.5
  Solubility pH 6.5 (mg/ml): 20.4 mg/ml
pH 7
  Solubility pH 7.0 (mg/mL): 20.6 mg/mL
pH 7.5
  Solubility pH 7.5 (mg/mL): 18.0 mg/mL
  Solubility pH 7.5 + phenol (mg/mL): 17.9 mg/mL
  Solubility pH 7.5, target conc. =10 mg/mL (measured mg/mL): 11 mg/mL
